Species: Rattus norvegicus
Assay: Open TG-GATES - Regimen: Daily Repeat
Assay type: toxicity, organism-based, Sprague-Dawley
Set-up: regimen Daily Repeat, gender Male, age 6 weeks
Settings: in vivo, iv, route intravenous injection; for Bas / Eos / Fbg / Ht / Lym / MCH / MCHC / MCV / Mono / PT / RBC / Ret / WBC: tissue Blood; for KIDNEY_L / KIDNEY_R / KIDNEY_TOTAL: tissue Kidney; for ALP / AST / CRE / DBIL / GLC / IP / K / Na / PL / RALB / TBIL / TG / TP / gamma-GTP / TC: tissue Plasma
[1] = 0 mg/kg, 72 h, dose level Control, time 3 day
[2] = 0 mg/kg, […], dose level Control, time 7 day
[3] = 0 mg/kg, […], dose level Control, time 14 day
[4] = 0 mg/kg, […], dose level Control, time 28 day
[5] = 1 mg/kg, 72 h, dose level High, time 3 day
[6] = 1 mg/kg, […], dose level High, time 7 day
[7] = 1 mg/kg, […], dose level High, time 14 day
[8] = 1 mg/kg, […], dose level High, time 28 day

`COc1cccc2c1C(=O)c1c(O)c3c(c(O)c1C2=O)C[C@@](O)(C(=O)CO)C[C@@H]3O[C@H]1C[C@H](N)[C@H](O)[C@H](C)O1` [DOXORUBICIN] showed a TERMINAL_BW [1] of 230.2 g, a Bas [1] of 0% and an Eos [1] of 0.8%. The Fbg [1] was 276.4 mg/dL, the Ht [1] was 37.6% and the Lym [1] was 80%. The MCH [1] was 21.3 pg, the MCHC [1] was 34.2% and the MCV [1] was 62.3 fL. For the same compound, the Mono [1] was 2.8%, the PT [1] was 16.3 s and the RBC [1] was 603.8 x10_4/ul. For the same compound, the Ret [1] was 5.8%, the WBC [1] was 107.3 x10_2/uL and the KIDNEY_L [1] was 1 g. The KIDNEY_R [1] was 1 g, the KIDNEY_TOTAL [1] was 2 g and the ALP [1] was 1504.4 IU/L. The AST [1] was 70.6 IU/L, the CRE [1] was 0.2 mg/dL and the DBIL [1] was 0.002 mg/dL. The GLC [1] was 193.8 mg/dL, the IP [1] was 6.9 mg/dL and the K [1] was 4.8 meq/L. For the same compound, the Na [1] was 141 meq/L, the PL [1] was 141 mg/dL and the RALB [1] was 3 g/dL. The TBIL [1] was 0.006 mg/dL, the TG [1] was 86.6 mg/dL and the TP [1] was 5.4 g/dL. For the same compound, the gamma-GTP [1] was 1.4 IU/L, the TERMINAL_BW [2] was 251.1 g and the TERMINAL_BW [3] was 307.3 g. The TERMINAL_BW [4] was 382.5 g, the Bas [2] was 0% and the Eos [2] was 0.6%. The Fbg [2] was 285.8 mg/dL, the Ht [2] was 38.4% and the Lym [2] was 77.4%. It also gave an MCH [2] of 20.8 pg, an MCHC [2] of 35.3% and an MCV [2] of 58.9 fL. For the same compound, the Mono [2] was 2.8%, the PT [2] was 16.5 s and the RBC [2] was 652.8 x10_4/ul. The Ret [2] was 5.5%, the WBC [2] was 121 x10_2/uL and the Bas [3] was 0%. For the same compound, the Eos [3] was 0.8%, the Fbg [3] was 305.6 mg/dL and the Ht [3] was 39.4%. For the same compound, the Lym [3] was 82.2%, the MCH [3] was 20.5 pg and the MCHC [3] was 35.8%. For the same compound, the MCV [3] was 57 fL, the Mono [3] was 2.2% and the PT [3] was 16.1 s. For the same compound, the RBC [3] was 691.8 x10_4/ul, the Ret [3] was 4.8% and the WBC [3] was 124.7 x10_2/uL. It also gave a Bas [4] of 0%, an Eos [4] of 1.4% and a Fbg [4] of 305.6 mg/dL. For the same compound, the Ht [4] was 42.7%, the Lym [4] was 85.6% and the MCH [4] was 19.6 pg. The MCHC [4] was 36.3%, the MCV [4] was 54 fL and the Mono [4] was 2%. For the same compound, the PT [4] was 16.4 s, the RBC [4] was 792.2 x10_4/ul and the Ret [4] was 2.9%. It also gave a WBC [4] of 144.2 x10_2/uL, a KIDNEY_L [2] of 1.1 g and a KIDNEY_R [2] of 1.1 g. For the same compound, the KIDNEY_TOTAL [2] was 2.2 g, the KIDNEY_L [3] was 1.2 g and the KIDNEY_R [3] was 1.2 g. It also gave a KIDNEY_TOTAL [3] of 2.3 g, a KIDNEY_L [4] of 1.4 g and a KIDNEY_R [4] of 1.4 g. The KIDNEY_TOTAL [4] was 2.7 g, the ALP [2] was 1305.8 IU/L and the AST [2] was 67 IU/L. For the same compound, the CRE [2] was 0.2 mg/dL, the DBIL [2] was 0 mg/dL and the GLC [2] was 188.2 mg/dL. For the same compound, the IP [2] was 7.2 mg/dL, the K [2] was 4.5 meq/L and the Na [2] was 142.2 meq/L. It also gave an RALB [2] of 2.9 g/dL, a TBIL [2] of 0.014 mg/dL and a TC [2] of 74.4 mg/dL. The TG [2] was 100.2 mg/dL, the TP [2] was 5.3 g/dL and the gamma-GTP [2] was 1.2 IU/L. The ALP [3] was 1239.2 IU/L, the AST [3] was 59.2 IU/L and the CRE [3] was 0.2 mg/dL. The DBIL [3] was 0 mg/dL, the GLC [3] was 203 mg/dL and the IP [3] was 6.9 mg/dL. It also gave a K [3] of 4.4 meq/L, a Na [3] of 140.8 meq/L and an RALB [3] of 3.1 g/dL. For the same compound, the TBIL [3] was 0.018 mg/dL, the TC [3] was 69 mg/dL and the TG [3] was 129.2 mg/dL. It also gave a TP [3] of 5.7 g/dL, a gamma-GTP [3] of 2.6 IU/L and an ALP [4] of 795.8 IU/L. It also gave an AST [4] of 64.8 IU/L, a CRE [4] of 0.3 mg/dL and a DBIL [4] of 0 mg/dL. The GLC [4] was 186.6 mg/dL, the IP [4] was 6.7 mg/dL and the K [4] was 4.1 meq/L. The Na [4] was 140.6 meq/L, the PL [4] was 130.8 mg/dL and the RALB [4] was 3.1 g/dL. For the same compound, the TBIL [4] was 0.006 mg/dL, the TC [4] was 65 mg/dL and the TG [4] was 96.2 mg/dL. The TP [4] was 6.1 g/dL, the gamma-GTP [4] was 1 IU/L and the TERMINAL_BW [5] was 213.7 g. The Bas [5] was 0%, the Eos [5] was 1% and the Fbg [5] was 293 mg/dL. The Ht [5] was 37.6%, the Lym [5] was 83.6% and the MCH [5] was 21.4 pg. For the same compound, the MCHC [5] was 35%, the MCV [5] was 61.1 fL and the Mono [5] was 2.4%. It also gave a PT [5] of 16.3 s, an RBC [5] of 616 x10_4/ul and a Ret [5] of 1%. The WBC [5] was 40.5 x10_2/uL, the KIDNEY_L [5] was 0.9 g and the KIDNEY_R [5] was 0.9 g. It also gave a KIDNEY_TOTAL [5] of 1.8 g, an ALP [5] of 1562.4 IU/L and an AST [5] of 64.4 IU/L. The CRE [5] was 0.2 mg/dL, the DBIL [5] was 0 mg/dL and the GLC [5] was 194.4 mg/dL. For the same compound, the IP [5] was 7 mg/dL, the K [5] was 4.3 meq/L and the Na [5] was 141.4 meq/L. For the same compound, the RALB [5] was 3.1 g/dL, the TBIL [5] was 0.014 mg/dL and the TC [5] was 79 mg/dL. For the same compound, the TG [5] was 78.2 mg/dL, the TP [5] was 5.6 g/dL and the gamma-GTP [5] was 1.4 IU/L. It also gave a TERMINAL_BW [6] of 236 g, a TERMINAL_BW [7] of 244.4 g and a TERMINAL_BW [8] of 221.9 g. For the same compound, the Bas [6] was 0%, the Eos [6] was 1.4% and the Fbg [6] was 307.2 mg/dL. For the same compound, the Ht [6] was 34.1%, the Lym [6] was 84.2% and the MCH [6] was 20.5 pg. For the same compound, the MCHC [6] was 36.1%, the MCV [6] was 56.8 fL and the Mono [6] was 2.4%. The PT [6] was 16.1 s, the RBC [6] was 600.6 x10_4/ul and the Ret [6] was 0.06%. The WBC [6] was 32.9 x10_2/uL, the Bas [7] was 0% and the Eos [7] was 0.4%. It also gave a Fbg [7] of 315.6 mg/dL, a Ht [7] of 31.5% and a Lym [7] of 76.8%. For the same compound, the MCH [7] was 20.6 pg, the MCHC [7] was 37.1% and the MCV [7] was 55.7 fL. The Mono [7] was 1%, the RBC [7] was 566.8 x10_4/ul and the Ret [7] was 0.04%. The WBC [7] was 14.2 x10_2/uL, the Bas [8] was 0% and the Eos [8] was 0.5%. The Fbg [8] was 669 mg/dL, the Lym [8] was 31.5% and the MCH [8] was 18.1 pg. The MCHC [8] was 38%, the MCV [8] was 47.6 fL and the Mono [8] was 8%. It also gave a PT [8] of 15.1 s, an RBC [8] of 301.5 x10_4/ul and a Ret [8] of 0.2%. For the same compound, the WBC [8] was 44.9 x10_2/uL, the KIDNEY_L [6] was 1 g and the KIDNEY_R [6] was 1 g. For the same compound, the KIDNEY_TOTAL [6] was 2 g, the KIDNEY_L [7] was 1 g and the KIDNEY_R [7] was 1 g. The KIDNEY_TOTAL [7] was 2 g, the KIDNEY_L [8] was 1.4 g and the KIDNEY_R [8] was 1.4 g. It also gave a KIDNEY_TOTAL [8] of 2.8 g, an ALP [6] of 963 IU/L and an AST [6] of 66.6 IU/L. It also gave a CRE [6] of 0.2 mg/dL, a DBIL [6] of 0 mg/dL and a GLC [6] of 199.6 mg/dL. For the same compound, the IP [6] was 7.3 mg/dL, the K [6] was 4.5 meq/L and the Na [6] was 142.8 meq/L. For the same compound, the PL [6] was 170.4 mg/dL, the RALB [6] was 3 g/dL and the TBIL [6] was 0.018 mg/dL. The TC [6] was 88.8 mg/dL, the TG [6] was 110.2 mg/dL and the TP [6] was 5.6 g/dL. It also gave a gamma-GTP [6] of 1.6 IU/L, an ALP [7] of 635.6 IU/L and an AST [7] of 56.4 IU/L. It also gave a CRE [7] of 0.2 mg/dL, a DBIL [7] of 0.002 mg/dL and a GLC [7] of 200.8 mg/dL. The K [7] was 4.1 meq/L, the Na [7] was 142 meq/L and the RALB [7] was 2.9 g/dL. For the same compound, the TBIL [7] was 0.032 mg/dL, the TC [7] was 90.8 mg/dL and the TG [7] was 110.4 mg/dL. It also gave a TP [7] of 5.4 g/dL, a gamma-GTP [7] of 1.4 IU/L and an ALP [8] of 339 IU/L. For the same compound, the AST [8] was 39.5 IU/L, the CRE [8] was 0.2 mg/dL and the DBIL [8] was 0 mg/dL. For the same compound, the GLC [8] was 197 mg/dL, the IP [8] was 5.6 mg/dL and the K [8] was 3.9 meq/L. For the same compound, the Na [8] was 141.5 meq/L, the PL [8] was 357.5 mg/dL and the RALB [8] was 1.6 g/dL. It also gave a TBIL [8] of 0 mg/dL, a TC [8] of 233 mg/dL and a TG [8] of 309 mg/dL. For the same compound, the TP [8] was 4.5 g/dL and the gamma-GTP [8] was 14.5 IU/L.

Source: ChEMBL document CHEMBL3885861, “Open TG-GATES”
